From patent US20240158446A1, “CYCLIC COMPOUND HAVING SELECTIVE INHIBITORY ACTION ON KRAS OVER HRAS AND NRAS” (CHUGAI SEIYAKU KABUSHIKI KAISHA, priority 2021, published 2024) come the findings set out here.

Assay [1] concerns the target GDP-bound HRAS wild-type protein (Homo sapiens, UniProt P01112). Briefly: Binding to HRAS by surface plasmon resonance (SPR), Single Cycle Kinetics. The following applies: SPR; GDP-bound HRAS wild-type protein vs GDP-bound KRAS wild-type protein; KD ratio class. In general terms: SPR reads the build-up and loss of mass on a sensor chip optically.
In assay [2] the test system is human lung cancer strain NCI-H441.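 Note: cell proliferation inhibition after four days measured by CellTiter-Glo.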
Assay [3] addresses GDP-bound NRAS wild-type protein (Homo sapiens, UniProt P01111). Description: Binding to NRAS by surface plasmon resonance (SPR), Single Cycle Kinetics. As to conditions: SPR; GDP-bound NRAS wild-type protein vs GDP-bound KRAS wild-type protein; KD ratio class.
Assay [4] deals with GDP-bound KRAS wild-type protein (Homo sapiens, UniProt P01116). Description: Binding to KRAS by surface plasmon resonance (SPR), Single Cycle Kinetics. The following applies: SPR, Single Cycle Kinetics, 1:1 binding model; GDP-bound KRAS wild-type protein; read-out: KRAS KD.

Molecules are shown by their SMILES.

Chain of GDP-bound NRAS wild-type protein (P01111 whole entry): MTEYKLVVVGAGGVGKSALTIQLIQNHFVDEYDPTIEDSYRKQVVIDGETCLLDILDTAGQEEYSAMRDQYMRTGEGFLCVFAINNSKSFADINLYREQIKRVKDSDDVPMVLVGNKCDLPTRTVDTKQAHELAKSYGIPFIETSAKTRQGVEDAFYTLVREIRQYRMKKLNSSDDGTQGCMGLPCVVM
Chain of GDP-bound HRAS wild-type protein (P01112 whole entry): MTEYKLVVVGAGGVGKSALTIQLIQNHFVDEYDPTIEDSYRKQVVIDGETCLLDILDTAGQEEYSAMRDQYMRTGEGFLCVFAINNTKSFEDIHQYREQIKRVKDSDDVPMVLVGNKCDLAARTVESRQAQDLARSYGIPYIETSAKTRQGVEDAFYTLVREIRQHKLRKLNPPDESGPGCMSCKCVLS
Chain of GDP-bound KRAS wild-type protein (P01116 whole entry): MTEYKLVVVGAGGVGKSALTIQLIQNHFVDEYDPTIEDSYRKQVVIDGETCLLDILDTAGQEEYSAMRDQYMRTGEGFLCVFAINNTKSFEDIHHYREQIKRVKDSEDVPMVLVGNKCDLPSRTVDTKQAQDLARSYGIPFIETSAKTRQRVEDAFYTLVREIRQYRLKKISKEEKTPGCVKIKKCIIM

As to `CCO[C@@H]1C[C@H]2C(=O)NC3(CCC3)C(=O)N(C)[C@@H](C(CC)CC)C(=O)N(C)[C@H](C(=O)N(C)C)CC(=O)N(C)[C@@H](CC3CC3)C(=O)N[C@@H]([C@@H](C)CC)C(=O)N(C)CC(=O)N(C)[C@H]3C/C=C\CCN(C3=O)[C@@H](CC3CCC(F)(F)CC3)C(=O)N(C)CC(=O)N[C@@H](CCc3cc(F)c(C(F)(F)F)c(F)c3)C(=O)N2C1` [PP1429], the “HRAS/KRAS (ratio of KD value for HRAS to KD value for KRAS)” value in assay [1] is “A (a compound having 10 or more and less than 20 is denoted as A)”. In addition, in assay [2], the IC50 came to 38.7 nM. The “NRAS/KRAS (ratio of KD value for NRAS to KD value for KRAS)” value in assay [3] is recorded as “AA (a compound having 20 or more is denoted as AA)”. Besides, in assay [4], the Kd turned out to be 0.52 nM.

`CCO[C@@H]1C[C@H]2C(=O)NC3(CCC3)C(=O)N(C)[C@@H](C(CC)CC)C(=O)N(C)[C@H](C(=O)N(C)C)CC(=O)N(C)[C@@H](CC3CCCC3)C(=O)N[C@@H]([C@@H](C)CC)C(=O)N(C)CC(=O)N(C)[C@H]3C/C=C\CCN(C3=O)[C@@H](CC3CCCCC3)C(=O)N(C)CC(=O)N[C@@H](CCc3cc(F)c(C(F)(F)F)c(F)c3)C(=O)N2C1` [PP1430]: the “HRAS/KRAS (ratio of KD value for HRAS to KD value for KRAS)” value in assay [1] is “A (a compound having 10 or more and less than 20 is denoted as A)”. In addition, the midpoint of inhibition in assay [2], the IC50, lay at 70.4 nM. In addition, the “NRAS/KRAS (ratio of KD value for NRAS to KD value for KRAS)” value in assay [3] was “A (a compound having 10 or more and less than 20 is denoted as A)”. In assay [4], the Kd is 0.85 nM.

For the compound `CCO[C@@H]1C[C@H]2C(=O)NC3(CCC3)C(=O)N(C)[C@@H](C(CC)CC)C(=O)N(C)[C@H](C(=O)N(C)C)CC(=O)N(C)[C@@H](CC3CCCC3)C(=O)N[C@@H]([C@@H](C)CC)C(=O)N(C)CC(=O)N(C)[C@H]3C/C=C\CCN(C3=O)[C@@H](CC3CCC(F)(F)CC3)C(=O)N(C)CC(=O)N[C@@H](CCc3cc(F)c(C(F)(F)F)c(F)c3)C(=O)N2C1` [PP1431], the “HRAS/KRAS (ratio of KD value for HRAS to KD value for KRAS)” value in assay [1] is “A (a compound having 10 or more and less than 20 is denoted as A)”. In assay [2], this compound displayed an IC50 of 41.2 nM. Moreover, the “NRAS/KRAS (ratio of KD value for NRAS to KD value for KRAS)” value in assay [3] is “AA (a compound having 20 or more is denoted as AA)”. Further, the Kd in assay [4] amounted to 0.57 nM.

As for `CCO[C@@H]1C[C@H]2C(=O)NC3(CCC3)C(=O)N(C)[C@@H](C(CC)CC)C(=O)N(C)[C@H](C(=O)N(C)C)CC(=O)N(C)[C@@H](CC(C)C)C(=O)N[C@@H]([C@@H](C)CC)C(=O)N(C)CC(=O)N(C)[C@H]3C/C=C\CCN(C3=O)[C@@H](CC3CCCCC3)C(=O)N(C)CC(=O)N[C@@H](CCc3cc(F)c(C(F)(F)F)c(F)c3)C(=O)N2C1` [PP1432], the “HRAS/KRAS (ratio of KD value for HRAS to KD value for KRAS)” value in assay [1] is “A (a compound having 10 or more and less than 20 is denoted as A)”. In assay [2], this compound displayed a concentration for half-maximal inhibition (IC50) of 51.3 nM. In addition, the “NRAS/KRAS (ratio of KD value for NRAS to KD value for KRAS)” value in assay [3] is listed as “AA (a compound having 20 or more is denoted as AA)”. The Kd in assay [4] was determined as 0.61 nM.

With `CCO[C@@H]1C[C@H]2C(=O)NC3(CCC3)C(=O)N(C)[C@@H](C(CC)CC)C(=O)N(C)[C@H](C(=O)N(C)C)CC(=O)N(C)[C@@H](CC(C)C)C(=O)N[C@@H]([C@@H](C)CC)C(=O)N(C)CC(=O)N(C)[C@H]3C/C=C\CCN(C3=O)[C@@H](CC3CCC(F)(F)CC3)C(=O)N(C)CC(=O)N[C@@H](CCc3cc(F)c(C(F)(F)F)c(F)c3)C(=O)N2C1` [PP1433], in assay [1], the “HRAS/KRAS (ratio of KD value for HRAS to KD value for KRAS)” value was “A (a compound having 10 or more and less than 20 is denoted as A)”. In addition, in assay [2], the midpoint of inhibition, the IC50, lay at 44.4 nM. For the same compound, the “NRAS/KRAS (ratio of KD value for NRAS to KD value for KRAS)” value in assay [3] is reported as “AA (a compound having 20 or more is denoted as AA)”. Also, the Kd in assay [4] was 0.46 nM.

For `CCO[C@@H]1C[C@H]2C(=O)NC3(CCC3)C(=O)N(C)[C@@H](C(CC)CC)C(=O)N(C)[C@H](C(=O)N3CCCC3)CC(=O)N(C)[C@@H](C)C(=O)N[C@@H]([C@@H](C)CC)C(=O)N(C)CC(=O)N(C)[C@H]3C/C=C\CCN(C3=O)[C@@H](CC3CCCCC3)C(=O)N(C)CC(=O)N[C@@H](CCc3cc(F)c(C(F)(F)F)c(F)c3)C(=O)N2C1` [PP1434], the “HRAS/KRAS (ratio of KD value for HRAS to KD value for KRAS)” value in assay [1] was “A (a compound having 10 or more and less than 20 is denoted as A)”. Moreover, the IC50 in assay [2] amounted to 112 nM. Further, the “NRAS/KRAS (ratio of KD value for NRAS to KD value for KRAS)” value in assay [3] is “A (a compound having 10 or more and less than 20 is denoted as A)”. The Kd in assay [4] was 0.69 nM.

As for `CCO[C@@H]1C[C@H]2C(=O)NC3(CCCC3)C(=O)N(C)[C@@H](C(CC)CC)C(=O)N(C)[C@H](C(=O)N3CCCC3)CC(=O)N(C)[C@@H](C)C(=O)N[C@@H]([C@@H](C)CC)C(=O)N(C)CC(=O)N(C)[C@H]3C/C=C\CCN(C3=O)[C@@H](CC3CCCCC3)C(=O)N(C)CC(=O)N[C@@H](CCc3cc(F)c(C(F)(F)F)c(F)c3)C(=O)N2C1` [PP1435], in assay [1], the “HRAS/KRAS (ratio of KD value for HRAS to KD value for KRAS)” value is “A (a compound having 10 or more and less than 20 is denoted as A)”. In assay [2], the IC50 amounted to 178 nM. In addition, the “NRAS/KRAS (ratio of KD value for NRAS to KD value for KRAS)” value in assay [3] is “A (a compound having 10 or more and less than 20 is denoted as A)”. The Kd in assay [4] worked out at 1.1 nM.

Consider `CCO[C@@H]1C[C@H]2C(=O)NC3(CCC3)C(=O)N(C)[C@@H](C(CC)CC)C(=O)N(C)[C@H](C(=O)N3CCCC3)CC(=O)N(C)[C@@H](C)C(=O)N[C@@H]([C@@H](C)CC)C(=O)N(C)CC(=O)N(C)[C@H]3C/C=C\CCN(C3=O)[C@@H](CC3CCC(F)(F)CC3)C(=O)N(C)CC(=O)N[C@@H](CCc3cc(F)c(C(F)(F)F)c(F)c3)C(=O)N2C1` [PP1436], for which the “HRAS/KRAS (ratio of KD value for HRAS to KD value for KRAS)” value in assay [1] is “A (a compound having 10 or more and less than 20 is denoted as A)”. This compound also displayed a half-inhibitory concentration (IC50) in assay [2] of 47.4 nM. For the same compound, the “NRAS/KRAS (ratio of KD value for NRAS to KD value for KRAS)” value in assay [3] is recorded as “AA (a compound having 20 or more is denoted as AA)”. The Kd in assay [4] was 0.29 nM.

With `CCO[C@@H]1C[C@H]2C(=O)NC3(CCCC3)C(=O)N(C)[C@@H](C(CC)CC)C(=O)N(C)[C@H](C(=O)N3CCCC3)CC(=O)N(C)[C@@H](C)C(=O)N[C@@H]([C@@H](C)CC)C(=O)N(C)CC(=O)N(C)[C@H]3C/C=C\CCN(C3=O)[C@@H](CC3CCC(F)(F)CC3)C(=O)N(C)CC(=O)N[C@@H](CCc3cc(F)c(C(F)(F)F)c(F)c3)C(=O)N2C1` [PP1437], the “HRAS/KRAS (ratio of KD value for HRAS to KD value for KRAS)” value in assay [1] is “A (a compound having 10 or more and less than 20 is denoted as A)”. For the same compound, the IC50 in assay [2] amounted to 220 nM. In assay [3], the “NRAS/KRAS (ratio of KD value for NRAS to KD value for KRAS)” value was “A (a compound having 10 or more and less than 20 is denoted as A)”. Besides, in assay [4], the Kd was found to be 0.61 nM.

On to `CCO[C@@H]1C[C@H]2C(=O)NC3(CCC3)C(=O)N(C)[C@@H](C(CC)CC)C(=O)N(C)[C@H](C(=O)N3CCCC3)CC(=O)N(C)[C@@H](COC)C(=O)N[C@@H]([C@@H](C)CC)C(=O)N(C)CC(=O)N(C)[C@H]3C/C=C\CCN(C3=O)[C@@H](CC3CCCCC3)C(=O)N(C)CC(=O)N[C@@H](CCc3cc(F)c(C(F)(F)F)c(F)c3)C(=O)N2C1` [PP1438], for which the “HRAS/KRAS (ratio of KD value for HRAS to KD value for KRAS)” value in assay [1] is “A (a compound having 10 or more and less than 20 is denoted as A)”. The compound also showed an IC50 in assay [2] of 89.4 nM. Further, the “NRAS/KRAS (ratio of KD value for NRAS to KD value for KRAS)” value in assay [3] was “AA (a compound having 20 or more is denoted as AA)”. Further, the Kd in assay [4] is 0.55 nM.

In general, IC50 refers to the concentration needed to halve the response being measured. For orientation: Kd means a measure of binding affinity in units of concentration.
